15 molecules from US9562035B2, “Benzamide derivative useful as FASN inhibitors for the treatment of cancer” (Janssen Pharmaceutica NV, priority 2013, dated 2017) can be followed below.

The target of assay [1] is T1, FASN Keto-reductase Domain (Homo sapiens, UniProt P49327).
T1 construct: 10 μL hFASN enzyme (full length, 300 ng, purified in house) and 360 μM NADPH; made in house
In words: Fatty Acid Synthase Keto-Reductase Domain (FASN KR) Inhibition. Format: biochemical. Particulars: mean where tested more than once; read-out: FASN K-R Domain pIC50 (converted). An outline of the steps:
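Full-length human FASN (300 ng) in 100 mM KH2PO4 pH 7.5 with 360 μM NADPH and 180 mM ethyl acetoacetate (stock); A340 decrease read over 20 min at room temperature.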

Assay [2] addresses T2, hFASN enzyme (full length) (Homo sapiens, UniProt P49327).
T2 construct: 10 μL hFASN enzyme (full length, 300 ng, purified in house); made in house
In words: Fatty Acid Synthase (FASN) Inhibition Scintillation Proximity Assay. Particulars: for IC50: mean where tested more than once, ~ = standard error of pIC50 larger than 0.5; for inhibition at 10 µM: read-out: FASN % Effect @1E−05M. It is filed as biochemical. An outline of the steps: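 Purified full-length human FASN (300 ng) incubated 60 min at room temperature with NADPH, [3H]-acetyl-CoA and malonyl-CoA in 100 mM KH2PO4 pH 7.5, 1 mM DTT; compound at 30 μM to 0.01 μM. [3H]-palmitate captured by SPA imaging beads; IC50 from 4-parameter fit, reported as pIC50.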

For assay [3], the system named is A2780 ovarian cells. As to the kind of experiment: A2780 Ovarian Cell Proliferation Assay in Lipid Reduced Medium, without Palmitate. To be noted: Homo sapiens, A2780; lipid reduced medium, without palmitate, 96 h, MTT; read-out: Proliferation A2780 w/o Palmitate pIC50 (converted). It is filed as cell-based. The essentials:
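A2780 cells were seeded in 10% FCS medium and switched next day to 10% lipid-reduced serum without palmitate. Compounds at 0.01–30 μM were added with 0.2% DMSO, 0.2% fatty-acid-free BSA and 0.25% ethanol final. After 96 h, MTT absorbance at 544 nm was normalized to plate controls, and IC50/pIC50 came from a 4-parameter logistic fit.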

The subject of assay [4] is A2780 ovarian cells. In words: A2780 Ovarian Cell Proliferation Assay in Lipid Reduced Medium, with Palmitate (control). Format: cell-based. To be noted: Homo sapiens, A2780; lipid reduced medium, 25 μM palmitate, 96 h, MTT; read-out: Proliferation A2780 with Palmitate pIC50 (converted). An outline of the steps: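 A2780 cells were seeded in RPMI1640 with 10% FCS, then switched next day to medium with 10% lipid-reduced serum. Compound was added with final 25 μM palmitate, 0.2% fatty-acid-free BSA and 0.2% DMSO, and incubated 96 h at 37 °C. Read-out was MTT absorbance at 544 nm; pIC50 = −log(IC50) from curve fit.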

T1 sequence (P49327 whole entry, the tested form may be a part): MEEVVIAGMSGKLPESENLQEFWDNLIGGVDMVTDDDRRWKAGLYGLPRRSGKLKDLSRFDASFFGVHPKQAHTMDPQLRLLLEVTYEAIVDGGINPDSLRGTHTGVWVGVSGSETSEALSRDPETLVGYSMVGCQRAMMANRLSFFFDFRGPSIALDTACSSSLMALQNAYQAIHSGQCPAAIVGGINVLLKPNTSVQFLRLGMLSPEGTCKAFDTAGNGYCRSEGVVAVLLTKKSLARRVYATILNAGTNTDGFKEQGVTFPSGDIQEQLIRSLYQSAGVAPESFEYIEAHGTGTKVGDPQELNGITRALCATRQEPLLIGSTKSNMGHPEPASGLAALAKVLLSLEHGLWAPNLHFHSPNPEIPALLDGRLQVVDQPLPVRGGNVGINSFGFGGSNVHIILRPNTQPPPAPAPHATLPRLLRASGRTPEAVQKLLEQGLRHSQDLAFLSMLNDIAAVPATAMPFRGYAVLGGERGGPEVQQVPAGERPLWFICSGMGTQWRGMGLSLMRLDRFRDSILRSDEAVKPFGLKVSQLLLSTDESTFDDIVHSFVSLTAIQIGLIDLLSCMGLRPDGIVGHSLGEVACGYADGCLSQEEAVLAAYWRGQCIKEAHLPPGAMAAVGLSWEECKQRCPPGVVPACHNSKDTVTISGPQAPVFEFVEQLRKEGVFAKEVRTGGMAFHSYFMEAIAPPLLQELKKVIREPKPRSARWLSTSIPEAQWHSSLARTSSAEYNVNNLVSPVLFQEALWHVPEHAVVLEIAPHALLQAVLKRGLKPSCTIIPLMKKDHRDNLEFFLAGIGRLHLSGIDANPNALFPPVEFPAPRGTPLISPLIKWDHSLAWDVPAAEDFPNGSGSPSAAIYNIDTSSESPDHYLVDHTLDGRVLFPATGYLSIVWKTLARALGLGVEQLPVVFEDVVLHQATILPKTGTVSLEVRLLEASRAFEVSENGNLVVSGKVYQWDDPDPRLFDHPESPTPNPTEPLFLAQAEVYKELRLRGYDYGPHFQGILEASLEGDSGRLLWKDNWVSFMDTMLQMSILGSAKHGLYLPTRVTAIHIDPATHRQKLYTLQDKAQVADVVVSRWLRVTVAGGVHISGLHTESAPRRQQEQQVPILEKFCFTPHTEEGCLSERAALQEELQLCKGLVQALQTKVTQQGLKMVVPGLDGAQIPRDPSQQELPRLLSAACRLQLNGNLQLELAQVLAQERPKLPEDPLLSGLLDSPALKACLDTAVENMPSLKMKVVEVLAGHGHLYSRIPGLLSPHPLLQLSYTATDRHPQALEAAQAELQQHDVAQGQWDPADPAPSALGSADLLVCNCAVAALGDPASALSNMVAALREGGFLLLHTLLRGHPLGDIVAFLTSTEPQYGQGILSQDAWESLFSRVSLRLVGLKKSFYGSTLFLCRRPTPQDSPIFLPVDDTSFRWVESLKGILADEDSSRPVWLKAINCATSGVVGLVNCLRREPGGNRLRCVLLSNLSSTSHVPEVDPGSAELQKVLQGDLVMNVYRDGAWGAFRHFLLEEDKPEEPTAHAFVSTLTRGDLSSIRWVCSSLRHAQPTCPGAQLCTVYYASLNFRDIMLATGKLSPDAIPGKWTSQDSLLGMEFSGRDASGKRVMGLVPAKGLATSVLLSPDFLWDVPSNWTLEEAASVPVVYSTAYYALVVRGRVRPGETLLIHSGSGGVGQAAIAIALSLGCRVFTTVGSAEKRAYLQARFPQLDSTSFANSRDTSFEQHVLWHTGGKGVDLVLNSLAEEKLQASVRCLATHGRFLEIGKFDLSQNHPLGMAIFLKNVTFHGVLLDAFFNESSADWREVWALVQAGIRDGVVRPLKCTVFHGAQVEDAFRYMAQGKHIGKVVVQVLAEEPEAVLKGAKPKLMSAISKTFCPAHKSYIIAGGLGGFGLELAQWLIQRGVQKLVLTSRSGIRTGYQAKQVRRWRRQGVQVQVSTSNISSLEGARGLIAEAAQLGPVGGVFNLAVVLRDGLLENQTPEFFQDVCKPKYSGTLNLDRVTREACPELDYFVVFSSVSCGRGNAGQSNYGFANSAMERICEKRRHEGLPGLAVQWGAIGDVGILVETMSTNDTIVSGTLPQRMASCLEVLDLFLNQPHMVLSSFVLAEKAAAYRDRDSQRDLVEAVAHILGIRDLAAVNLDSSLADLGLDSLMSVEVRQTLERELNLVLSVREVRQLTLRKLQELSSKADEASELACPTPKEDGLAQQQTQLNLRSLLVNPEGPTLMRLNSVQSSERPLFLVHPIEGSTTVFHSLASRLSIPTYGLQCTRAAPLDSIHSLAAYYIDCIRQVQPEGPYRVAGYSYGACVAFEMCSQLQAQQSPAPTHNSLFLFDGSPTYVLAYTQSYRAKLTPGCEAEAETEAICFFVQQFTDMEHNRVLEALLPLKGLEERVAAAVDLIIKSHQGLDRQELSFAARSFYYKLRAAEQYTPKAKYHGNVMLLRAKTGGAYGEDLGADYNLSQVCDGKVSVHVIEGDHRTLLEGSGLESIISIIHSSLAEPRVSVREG
T2 sequence (P49327 whole entry): as the sequence (P49327 whole entry, the tested form may be a part) above

In the case of `COc1ccc(C(=O)N2CC(c3ccc(-c4cnn(C)c4)cc3)C2)cc1NC(=O)c1ccc(NC(C)C)nc1` [Compound 202, 6-(isopropylamino)-N-(2-methoxy-5-(3-(4-(1-methyl-1H-pyrazol-4-yl)phenyl)azetidine-1-carbonyl)phenyl)nicotinamide], the IC50 is 0.151 µM in assay [1], 0.0525 µM in assay [2], 0.0589 µM in the assay on A2780 ovarian cells [3] and greater than 10 µM in the assay with A2780 ovarian cells [4]. Besides, the inhibition at 10 µM in assay [2] is 113%.

In the case of `Cc1ccc(C(=O)N2CCC(c3ccc(-c4cnn(C)c4)cc3)CC2)cc1NC(=O)C1CCN(C2CCCCC2)CC1` [Compound 177, 1-cyclohexyl-N-(2-methyl-5-(4-(4-(1-methyl-1H-pyrazol-4-yl)phenyl)piperidine-1-carbonyl)phenyl)piperidine-4-carboxamide], the IC50 in assay [1] was 0.0501 µM; in assay [2] it was 0.0257 µM; with A2780 ovarian cells [3] it was 0.0138 µM; in the assay on A2780 ovarian cells [4], greater than 10 µM. Besides, in assay [2], the inhibition at 10 µM amounted to 112%.

Regarding `Cc1ccc(C(=O)N2CCC(c3ccc(-c4cccs4)cc3)CC2)cc1NC(=O)c1ccc(NC(C)C)nc1` [Compound 236, 6-(isopropylamino)-N-(2-methyl-5-(4-(4-(thiophen-2-yl)phenyl)piperidine-1-carbonyl)phenyl)nicotinamide], the IC50 in assay [1] was 0.355 µM; in assay [2] it was roughly 0.309 µM; with A2780 ovarian cells [3] it was 0.603 µM; in the assay on A2780 ovarian cells [4], 1.95 µM. Further, the inhibition at 10 µM in assay [2] is 74%.

With `Cc1ccc(C(=O)N2CCC(c3ccc(-c4cnn(C)c4)cn3)CC2)cc1NC(=O)c1ccc(NC(C)C)nc1` [Compound 264, 6-(isopropylamino)-N-(2-methyl-5-(4-(5-(1-methyl-1H-pyrazol-4-yl)pyridin-2-yl)piperidine-1-carbonyl)phenyl)nicotinamide], the IC50 is 0.219 µM in assay [1], 0.0589 µM in assay [2], 0.0871 µM with A2780 ovarian cells [3] and greater than 10 µM in the assay with A2780 ovarian cells [4]. Further, the inhibition at 10 µM in assay [2] was 109%.

For the molecule `Cc1ccc(C(=O)N2CCC(c3ccc(-c4cnn(C)c4)cc3)CC2)cc1NC(=O)c1cnc(Cl)nc1` [Compound 136, 2-chloro-N-(2-methyl-5-(4-(4-(1-methyl-1H-pyrazol-4-yl)phenyl)piperidine-1-carbonyl)phenyl)pyrimidine-5-carboxamide], the IC50 in assay [1] is 0.0692 µM; in assay [2] it was 0.0309 µM; in the assay on A2780 ovarian cells [3] it was 1.23 µM; in the assay on A2780 ovarian cells [4], roughly 5.13 µM. Also, the inhibition at 10 µM in assay [2] was 105%.

Consider `Cc1ccc(C(=O)N2CC(c3ccc(-c4cnn(C)c4)cc3)C2)cc1NC(=O)c1ccc(N2CCCC2)nc1` [Compound 106, N-(2-methyl-5-(3-(4-(1-methyl-1H-pyrazol-4-yl)phenyl)azetidine-1-carbonyl)phenyl)-6-(pyrrolidin-1-yl)nicotinamide], for which the IC50 in assay [1] is 0.0245 µM; in assay [2], 0.0107 µM; in the assay with A2780 ovarian cells [3], 0.0794 µM; in the assay with A2780 ovarian cells [4], greater than 15.1 µM. The inhibition at 10 µM in assay [2] was 113%.

As for `Cc1ccc(C(=O)N2CC(c3ccc(-c4cnn(C)c4)cc3)C2)cc1NC(=O)c1cnc(NC(C)C)nc1` [Compound 158, 2-(isopropylamino)-N-(2-methyl-5-(3-(4-(1-methyl-1H-pyrazol-4-yl)phenyl)azetidine-1-carbonyl)phenyl)pyrimidine-5-carboxamide], the IC50 is 0.0372 µM in assay [1], 0.0234 µM in assay [2], 0.01 µM in the assay on A2780 ovarian cells [3] and greater than 10 µM with A2780 ovarian cells [4]. The inhibition at 10 µM in assay [2] was found to be 102%.

Regarding `Cc1ccc(C(=O)N2CC(c3ccc(-c4ccc5c(cnn5C)c4)cc3)C2)cc1NC(=O)c1ccc(NC(C)C)nc1` [Compound 16, 6-(isopropylamino)-N-(2-methyl-5-(3-(4-(1-methyl-1H-indazol-5-yl)phenyl)azetidine-1-carbonyl)phenyl)nicotinamide], the IC50 was 0.0955 µM in assay [1], 0.0955 µM in assay [2], 1.41 µM in the assay with A2780 ovarian cells [3] and greater than 10 µM in the assay with A2780 ovarian cells [4]. Besides, in assay [2], the inhibition at 10 µM turned out to be 106%.

As for `Cc1ccc(C(=O)N2CCC(c3ccc(-c4cnn(C)c4)cc3)CC2)cc1NC(=O)C1CC1` [Compound #89, N-(2-methyl-5-(4-(4-(1-methyl-1H-pyrazol-4-yl)phenyl)piperidine-1-carbonyl)phenyl)cyclopropanecarboxamide], the IC50 is 0.0661 µM in assay [1], 0.0204 µM in assay [2], 0.151 µM in the assay on A2780 ovarian cells [3] and greater than 10 µM with A2780 ovarian cells [4]. In addition, the inhibition at 10 µM in assay [2] was 103%.

Take `Cc1ccc(C(=O)N2CCC(c3ccc(-c4ccnn4C)cc3)CC2)cc1NC(=O)c1ccc(NC(C)C)nc1` [Compound 44, 6-(Isopropylamino)-N-(2-methyl-5-(4-(4-(1-methyl-1H-pyrazol-5-yl)phenyl)piperidine-1-carbonyl)phenyl)nicotinamide]: the IC50 in assay [1] is 0.0891 µM; in assay [2], 0.0617 µM; in the assay on A2780 ovarian cells [3] it was 0.155 µM; in the assay on A2780 ovarian cells [4], greater than 10 µM. In assay [2], the inhibition at 10 µM stood at 102%.

Consider `COc1cc(Cl)cc(C(=O)Nc2cc(C(=O)N3CCC(c4ccc(-c5cnn(C)c5)cc4)CC3)ccc2C)c1` [Compound 128, 3-chloro-5-methoxy-N-(2-methyl-5-(4-(4-(1-methyl-1H-pyrazol-4-yl)phenyl)piperidine-1-carbonyl)phenyl)benzamide], for which the IC50 is 0.288 µM in assay [1], 0.257 µM in assay [2], roughly 0.417 µM with A2780 ovarian cells [3] and 6.17 µM with A2780 ovarian cells [4]. In addition, in assay [2], the inhibition at 10 µM was 84%.

`CCC(=O)N[C@@H]1CC[C@H](C(=O)Nc2cc(C(=O)N3CCC(c4ccc(-c5ccnn5C)cc4)CC3)ccc2C)C1` [Compound 13, (1S,3R)—N-(2-methyl-5-(4-(4-(1-methyl-1H-pyrazol-5-yl)phenyl)piperidine-1-carbonyl)phenyl)-3-propionamidocyclopentanecarboxamide]: the IC50 in assay [1] is 0.229 µM; in assay [2], 0.126 µM; in the assay with A2780 ovarian cells [3], 0.603 µM; in the assay on A2780 ovarian cells [4], greater than 10 µM. Besides, the inhibition at 10 µM in assay [2] stood at 99%.

For `Cc1ccc(C(=O)N2CCC(c3ccc(-c4cnn(C)c4)cc3)CC2)cc1NC(=O)c1nccs1` [Compound 198, N-(2-methyl-5-(4-(4-(1-methyl-1H-pyrazol-4-yl)phenyl)piperidine-1-carbonyl)phenyl)thiazole-2-carboxamide], the IC50 was 0.372 µM in assay [1], 0.135 µM in assay [2], 0.603 µM with A2780 ovarian cells [3] and greater than 10 µM in the assay with A2780 ovarian cells [4]. In assay [2], the inhibition at 10 µM came to 100%.

With `Cc1ccc(C(=O)N2CCC(c3ccc(-c4cnn(C)c4)cc3)CC2)cc1NC(=O)C1CCN(C(=O)C2CC2)C1` (stereo not drawn) [Compound 220, 1-(cyclopropanecarbonyl)-N-(2-methyl-5-(4-(4-(1-methyl-1H-pyrazol-4-yl)phenyl)piperidine-1-carbonyl)phenyl)pyrrolidine-3-carboxamide], the IC50 in assay [1] was 0.174 µM; in assay [2], 0.0676 µM; with A2780 ovarian cells [3], 0.0955 µM; with A2780 ovarian cells [4] it was greater than 10 µM. The inhibition at 10 µM in assay [2] is 110%.

On to `COc1ccc(C(=O)N2CC(c3ccc(-c4cnn(C)c4)cc3)C2)cc1NC(=O)c1ccc(N2CCOCC2)nc1` [Compound 184, N-(2-methoxy-5-(3-(4-(1-methyl-1H-pyrazol-4-yl)phenyl)azetidine-1-carbonyl)phenyl)-6-morpholinonicotinamide], for which the IC50 in assay [1] is 0.123 µM; in assay [2], 0.0363 µM; in the assay with A2780 ovarian cells [3], 0.0589 µM; in the assay on A2780 ovarian cells [4], greater than 10 µM. In assay [2], the inhibition at 10 µM stood at 105%.
